Tests used:
[1] = Hydrolysis in aqueous solution (chemical hydrolysis in phosphate buffer); type: physicochemical; settings: aqueous phosphate buffer 0.16 M; for half-life: read-out: Pseudo-first order half-time (t1/2) for chemical hydrolysis (converted)
Procedure: (§1) The HPLC system used consisted of a Beckman System Gold Programmable Solvent Module 126, Beckman System Gold Detector Module 166 with variable wavelength UV detector (set at 254 nm) and a Beckman System Gold Autosampler 507e. Separations were accomplished on a Purospher RP-18 reverse-phase column, 12.5 cm×4.0 mm i.d., 5 μm (Merck, Darmstadt, Germany). The chromatographic conditions were as follows: injection volume, 50 μl; column temperature, 40° C.; flow rate, gradient/isocratic at 1.0 ml/min. The mobile phase consisted of various proportions of methanol/water mixture (90:10) and a citrate/phosphate buffer pH 2.2.
The rate of chemical hydrolysis was determined in aqueous phosphate buffer solution (0.16 M) at pH 7.4, 5.0, and 1.2 at 37° C. An appropriate amount was dissolved in 10 ml of preheated buffer and the solution was placed in a thermostatically controlled water bath at 37° C. At appropriate time intervals, samples were taken and analyzed for the remaining codrug by HPLC. Pseudo-first order half-time (t1/2) for the hydrolysis was calculated from the slope of the linear portion of the plotted logarithm of remaining codrug vs. time.

[2] = Hydrolysis in 10% rabbit liver homogenate; type: in vitro ADME; settings: 10% rabbit liver homogenate (9,000 g supernatant), pH 7.4, 37° C., read-out: t1/2 of hydrolysis in rabbit liver homogenate
Procedure: as §1
The rabbit liver was homogenized with approximately four equivalent volumes of isotonic phosphate buffer at pH 7.4 using an X-1020 homogenizer (Ystral, Germany). The homogenate was centrifuged for 90 min at 9,000 g and 4° C. with a Biofuge 28 RS centrifuge (Heraeus Instruments, Germany). The supernatant was stored at −80° C. until analysis. An appropriate amount was dissolved in one volume of preheated 20% liver homogenate. The solution was then incubated at 37° C. At appropriate time intervals, samples (300 μl) were withdrawn. Samples were pretreated with 300 μl of methanol to terminate enzymatic activity. […] The residue was dissolved in 400 μl of the mobile phase buffer and analyzed by HPLC.

[3] = after oral administration; cited from earlier work

SMILES | Pseudo-first order half-time (t1/2) for chemical hydrolysis ([1]; pH 1.2, 37° C.) [h] | half-life ([1]; pH 5.0, 37° C.) [h] | half-life ([1]; pH 7.4, 37° C.) [h] | half-life [2] [min] | bioavailability of entacapone [3]
CCN(CC)C(=O)/C(C#N)=C/c1cc(OC(=O)N[C@@H](Cc2ccc(O)c(O)c2)C(=O)OC)c(O)c([N+](=O)[O-])c1 [Example 1, (S)-2-{5-[(E)-2-cyano-2-(diethylcarbamoyl)vinyl]-2-hydroxy-3-nitrophenoxycarbonylamino}-3-(3,4-dihydroxyphenyl)propionic acid methyl ester] | 12.1 | 1.4 | 1.1 | 7 | –
CCN(CC)C(=O)/C(C#N)=C/c1cc(O)c(O)c([N+](=O)[O-])c1 [entacapone, (E)2-cyano-N,N-diethyl-3-(3,4-dihydroxy-5-nitrophenyl)propenamide] | – | – | – | – | 29-46%

Source: US20050059608A1, “Pharmaceutical compounds” (priority 2001, published 2005)
